The structures appear in SMILES notation. Calls of active or inactive are those of the source. No rule for the calls is given here.

The target of this experiment is glucose-6-phosphate dehydrogenase-6-phosphogluconolactonase (Plasmodium falciparum 3D7). Put plainly: inhibition of P. falciparum G6PD activity – biochemical, end-point NADPH detection, orthogonal assay, dose response (AID 540252). To be noted: purified PfG6PD enzyme, NADPH direct detection.
Take `O=C(Cn1sc2ccccc2c1=O)Nc1ccccc1`: the IC50 (as a rule, the concentration needed to halve the response being measured) was 15.6 µM.
Regarding `Cc1cc(C)c[n+](C2=C([O-])c3ccccc3C(=O)/C2=N\S(=O)(=O)c2cccs2)c1`, the IC50 is > 80 µM (inactive).
Next, `Cc1ccc(C)c(-n2sc3ccc(F)cc3c2=O)c1`: 10.5 µM.
Regarding `COc1cc(SSc2cc(OC)cc([N+](=O)[O-])c2N)c(N)c([N+](=O)[O-])c1`, the half-inhibitory concentration (IC50) is 13.1 µM.
Next, `COc1ccc(Nc2cc(C)c3c(O)cccc3n2)cc1`: > 80 µM (inactive); `CN=c1nc(-c2ccccc2)n(-c2ccccc2)s1`: 13.3 µM; `CCC1(CC)Cc2ccccc2C(N)=C1C#N`: > 80 µM (inactive).
Next, `CCOC(=O)c1c2ccc(OCC(=O)NN)cc2n2ccccc12`: > 80 µM (inactive).
As for `Cc1cccc(NC2=C(NC(=O)c3ccccc3)C(=O)c3ccccc3C2=O)c1`, the figure is > 80 µM (inactive); as for `c1cc(CNc2ccc3c(c2)OCO3)ccn1`, > 80 µM (inactive); as for `O=C1C(c2cc(=O)c3ccccc3[nH]2)=C(O)c2ccccc21`, > 80 µM (inactive).
As to `Cc1ccc(/C=C/C(=O)NCCc2cccc(Cl)c2)o1`, the IC50 was > 80 µM (inactive).
As for `CCN1CCN(C(=S)c2ccc(O)cc2)CC1`, the IC50 is > 80 µM (inactive).
Next, `C[C@]12CC[C@@H]3c4cc(O)c(O)cc4CC[C@H]3[C@@H]1CC[C@@H]2O`: 38 µM; `O=C(NCCCN1CCOCC1)c1sc2cc([N+](=O)[O-])ccc2c1Cl`: 49.2 µM.
Next, `O=C(CNC(=O)c1cccs1)NCC(=O)OCC(=O)c1ccc([N+](=O)[O-])cc1`: 67.9 µM; `CCc1cc(-c2n[nH]c(C)c2-c2ccccc2Cl)c(O)cc1OC`: > 80 µM (inactive); `O=C(O)CSc1cc(NS(=O)(=O)c2cccc([N+](=O)[O-])c2)c2ccccc2c1O`: > 80 µM (inactive).
Next, `c1ccc(-c2cn3c(n2)CCc2ccc4cccnc4c2-3)cc1`: > 80 µM (inactive); `O=c1c2ccccc2[se]n1-c1ccccc1`: 13.5 µM; `Cn1c(=O)c2c([nH]c(=S)n2CCCc2ccccc2)n(C)c1=O`: > 80 µM (inactive).
Regarding `N#Cc1ccc2c(=O)n(-c3ccccc3)sc2c1`, the IC50 is > 80 µM (inactive).
For the molecule `Cn1c2ccccc2c2ccc3c(c21)C(=O)C=CC3=O`, the IC50 was > 80 µM (inactive).
On to `O=C(CCC(=O)Nc1ccccc1Cl)N/N=C/c1ccccc1`, for which the IC50 was > 80 µM (inactive).
As for `CNS(=O)(=O)c1ccc(-c2ccc(C=C3C(=O)NC(=O)NC3=O)o2)cc1`, the figure is > 80 µM (inactive); as for `O=C(Nc1ccc([N+](=O)[O-])cc1Cl)c1cc(Cl)ccc1O`, > 80 µM (inactive).
Next, `O=C1/C(=C\c2ccc([N+](=O)[O-])cc2)CS(=O)(=O)C/C1=C/c1ccc([N+](=O)[O-])cc1`: > 80 µM (inactive).
Next, `CCCCCCCCn1sccc1=O`: 46 µM; `CC(=O)Nc1cc(OC(C)=O)c2nonc2c1OC(C)=O`: > 80 µM (inactive).
For `Cc1ccc(-c2csc(NC(=O)c3ccccc3F)c2C(=O)O)cc1`, the IC50 was > 80 µM (inactive).
As to `CCNc1nc(NC(C)C)nc(NS(=O)(=O)c2ccc(Cl)cc2)n1`, the IC50 is > 80 µM (inactive).
Next, `CC(C)c1nnc(NC(=O)c2sc3ccccc3c2Cl)s1`: > 80 µM (inactive); `Cc1nnc(Sc2cc(NCCO)c([N+](=O)[O-])c3nonc23)s1`: 53.1 µM.
As for `Cc1ccc2nc(SCC(=O)NC3CCCc4ccccc43)[nH]c2c1` (stereo unspecified), the figure is > 80 µM (inactive); as for `Clc1cccc(Cl)c1CNc1ccc(N2CCCC2)cc1`, > 80 µM (inactive).
As for `N#CC1=C(N)Oc2c(O)cc3ccccc3c2C1c1ccsc1` (stereo unspecified), the figure is > 80 µM (inactive); as for `COc1ccc(NC2CCCN(Cc3cccc4cnccc34)C2)cc1OC` (stereo unspecified), > 80 µM (inactive); as for `O=C(Nc1nnc(S(=O)(=O)N2CCCCC2)s1)c1cccc(Br)c1`, > 80 µM (inactive).
`CN(C)c1ccc(Cc2cc3c(O)ccc(O)c3cc(Cc3ccc(N(C)C)cc3)c2=O)cc1`: the IC50 is > 80 µM (inactive).
Regarding `O=[N+]([O-])c1c(NCCO)cc(Sc2nc3ccccc3s2)c2nonc12`, the IC50 is > 80 µM (inactive).
Take `COc1ccc(N=C2C(=S)N(c3ccc(OC)cc3)C(=NS(=O)(=O)c3ccccc3)N2c2ccccc2)cc1`: the IC50 was > 80 µM (inactive).
Next, `COc1c(O)c(O)c2oc(-c3ccccc3)cc(=O)c2c1OC`: > 80 µM (inactive).
As for `COCCn1nnnc1C(c1cc2cc(OC)c(OC)cc2[nH]c1=O)N1CCN(c2ccc(O)cc2)CC1` (stereo unspecified), the figure is > 80 µM (inactive); as for `CCCN1CCc2cc(O)cc3c2[C@H]1Cc1ccc(O)c(O)c1-3`, > 80 µM (inactive); as for `Cc1ccnc(-n2sc3ccccc3c2=O)n1`, > 80 µM (inactive).
Next, `O=S(=O)(Nc1c(O)ccc2ccccc12)c1ccccc1`: > 80 µM (inactive).
For the molecule `CC1(C)Nc2ccc(O)cc2-c2c1ssc2=S`, the IC50 was > 80 µM (inactive).
Next, `CC1(C)CC2(CC(c3ccccc3F)c3ccc(O)c(O)c3O2)NC(=S)N1` (stereo unspecified): 32.1 µM; `CCOc1ccc(S(=O)(=O)Nc2cc(SCC(=O)O)c(O)c3ccccc23)cc1`: > 80 µM (inactive).
Next, `O=[N+]([O-])c1cnc(Sc2ccncn2)c([N+](=O)[O-])c1`: 49.3 µM; `CCNc1ccccc1CP(=O)(c1ccccc1)c1ccccc1O` (stereo unspecified): > 80 µM (inactive).
As for `Cc1ccc(NC(=O)c2cc(N3C(=O)C=CC3=O)ccc2N2CCOCC2)cc1Cl`, the figure is > 80 µM (inactive).
With `CC(C)Sc1nnc(NC(=O)c2ccc3c(c2)OCO3)s1`, the IC50 is > 80 µM (inactive).
As for `Cc1cc(O)c(C(C)C)cc1N=Cc1ccccc1[N+](=O)[O-]`, the figure is > 80 µM (inactive).
Next, `Cc1nn(-c2ccccc2)c(Cl)c1/C=N/Nc1nc2ccccc2n1C`: > 80 µM (inactive).
In the case of `O=C(O)c1ccc(-n2c(-c3cc(-c4ccco4)[nH]n3)n[nH]c2=S)cc1`, the IC50 was > 80 µM (inactive).
As for `NNC(=O)CN1C(c2ccccc2Br)=Nc2ccc(Br)cc2C1c1ccccc1` (stereo unspecified), the figure is > 80 µM (inactive); as for `Oc1ccc(C2C[C@H]3CC[C@@H]2C3)cc1O` (stereo partly specified), 31.3 µM; as for `Cc1cc(C)c2c(=O)n(CC(=O)Nc3ccc(Br)c(C)c3)sc2n1`, > 80 µM (inactive).
As for `C=CCSc1nc2sc3c(c2c(=O)n1CC)CCc1ccccc1-3`, the figure is > 80 µM (inactive); as for `CC(=O)Nc1ccc(S(=O)(=O)NNc2cccc(C)c2)cc1`, > 80 µM (inactive); as for `Cc1ccccc1OCC(=O)NCC(=O)OCC(=O)c1ccc([N+](=O)[O-])cc1`, 50.1 µM.
Next, `Oc1ccc(C23CC4CC(CC(C4)C2)C3)cc1O`: 52 µM.
Turning to `CCOC(=O)c1ccc(-n2c(N)c(C(=O)NCC3CCCO3)sc2=S)cc1` (stereo unspecified), the IC50 was > 80 µM (inactive).
Next, `O=C(COc1cccc2ccccc12)Nc1ccc(Cl)cc1C(=O)O`: > 80 µM (inactive).
As for `COc1ccc2ccccc2c1C1CC(=O)N2CN(C3CCCCC3)CSC2=C1C#N` (stereo unspecified), the figure is > 80 µM (inactive); as for `Cc1ccc(-n2c(N)c(C(=O)N3CCN(C)CC3)sc2=S)cc1`, 55.2 µM.
Regarding `O=C1NC(=O)C(=Cc2ccc(-c3ccccc3[N+](=O)[O-])o2)C(=O)N1`, the IC50 is > 80 µM (inactive).
As for `Nc1cc(N)c(OCC(F)(F)F)cc1OCC(F)(F)F`, the figure is > 80 µM (inactive); as for `C=CCOc1ccc(CNc2ccc3[nH]c(=O)[nH]c3c2)cc1OC`, > 80 µM (inactive); as for `Nc1ccc2c3c(cccc13)-c1ccccc1-2`, > 80 µM (inactive).
Consider `COc1ccc(C(=O)c2c(C(F)(F)F)oc3c2C(=O)c2ccccc2C3=O)cc1OC`, for which the IC50 was > 80 µM (inactive).
Next, `COC1=C(OC)C(=O)C(Sc2ccc3ccccc3c2)=CC1=O`: 30.2 µM; `Fc1cccc(Cl)c1CNc1ccc(N2CCCC2)cc1`: > 80 µM (inactive); `O=C1C=CC2=C3c4cc(O)c(O)cc4CC3(O)COC2=C1O` (stereo unspecified): > 80 µM (inactive).
`CN(C)S(=O)(=O)c1cccc(-n2sc3ccccc3c2=O)c1`: the IC50 is 13.5 µM.
Next, `c1cncc(CNc2ccc3c(c2)OCO3)c1`: > 80 µM (inactive); `O=c1c2ccccc2sn1-c1cccc(Cl)c1`: 13.7 µM; `O=C1C(Cl)=C(NCCc2ccccc2)C(=O)c2ccccc21`: > 80 µM (inactive).
As for `CC1=CC(=NOC(=O)/C=C/c2ccccc2)C=C(C)C1=O`, the figure is > 80 µM (inactive).
As for `CN1CCN(C(=S)C(=O)Nc2ccc(Br)cc2)CC1`, the figure is 67.9 µM; as for `COc1cc(CNc2ccc(N3CCCC3)cc2)cc(Cl)c1OC`, > 80 µM (inactive); as for `CN(C)c1ccc(C=c2c3cc(O)ccc3n3c2cc(-c2ccccc2)[n+]3C)cc1`, > 80 µM (inactive).
For the molecule `COc1ccc(N2C(=O)/C(=C/c3cccs3)NC2=S)cc1`, the IC50 was > 80 µM (inactive).
As for `O=C(CNC(=O)c1cccs1)OCC(=O)c1ccc([N+](=O)[O-])cc1`, the figure is 62.5 µM; as for `C[n+]1c(-c2ccccc2)cc2c(=Cc3ccc([N+](=O)[O-])cc3)c3ccccc3n21`, > 80 µM (inactive); as for `COc1cc(/C=C/C(=O)c2ccc([N+](=O)[O-])o2)ccc1O`, > 80 µM (inactive).
In the case of `CC(=O)Nc1ccc(S(=O)(=O)/N=C2\C(=O)c3ccccc3C([O-])=C2n2cc[n+](-c3ccccn3)c2)cc1`, the IC50 was > 80 µM (inactive).
Next, `Cc1ccccc1-n1c(-c2ccc3ccccc3n2)n[nH]c1=S`: > 80 µM (inactive); `CCN(CC)c1ccc(C(=C2C=CC(=[N+](CC)CC)C=C2)c2ccccc2)cc1`: > 80 µM (inactive).
As for `COc1cc(NCCCn2ccc(NC(=O)OCc3ccccc3)nc2=O)cc(OC)c1OC`, the figure is > 80 µM (inactive).
